# Columns and labels:
# [1] = Stability of compound in DPBS buffer at pH 7.4 assessed as half life measured for 48 hrs; format: physicochemical
# [2] = Stability of compound in human Caco-2 cells assessed as half life measured for 48 hrs; format: ADME, cell-based
# [3] = biological target: T1, Peptidyl-prolyl cis-trans isomerase FKBP1A (Homo sapiens, UniProt P62942); assay: Inhibition of FKBP12 (unknown origin)
# [4] = biological target: T1, Peptidyl-prolyl cis-trans isomerase FKBP1A; assay: Inhibition of FKBP12 (unknown origin) measured for 6 hrs relative to control; settings: concentration not given here
# [5] = Half life in mouse plasma at 10 mg/kg, ip measured after 12 hrs; format: ADME, organism-based
# [6] = biological target: Human immunodeficiency virus type 1 protease (Human immunodeficiency virus 1, UniProt Q72874); assay: Inhibition of HIV-1 protease by FRET-based assay
# [7] = Prodrug conversion in human serum at 50 uM using glycylprolyl-para-nitroanilide as substrate measured for 1 hr relative to control; format: ADME, cell-free
# [8] = Prodrug conversion in human serum at 50 uM using glycylprolyl-para-nitroanilide as substrate measured for 4 hrs relative to control; format: ADME, cell-free
# [9] = Half life in mouse plasma at 10 mg/kg, ip measured after 3 hrs; format: ADME, organism-based
# [10] = Stability of compound in PBS buffer at pH 7.4 assessed as half life; format: physicochemical
# [11] = Drug uptake in dog MDCK-MDR1 cells; format: ADME, cell-based, Canis lupus familiaris
# T1 sequence (P62942 whole entry): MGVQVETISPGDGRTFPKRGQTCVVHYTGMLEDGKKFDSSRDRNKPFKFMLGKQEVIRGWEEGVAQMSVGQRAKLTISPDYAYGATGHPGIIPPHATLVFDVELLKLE
structure (smiles),measurement,setting,value
CC(C)(C)NC(=O)[C@@H]1C[C@@H]2CCCC[C@@H]2CN1C[C@@H](OC(=O)CCC(=O)OCC(O)C1OC(=O)C(O)=C1O)[C@H](Cc1ccccc1)NC(=O)[C@H](CC(N)=O)NC(=O)c1ccc2ccccc2n1 (stereo partly drawn),half-life,[1],9.65 h
same,half-life,[2],5.73 h
CCC(C)(C)C(=O)C(=O)N1CCCCC1C(=O)OC(CCc1ccc(OC)c(OC)c1)c1cccc(NC(=O)CCC(=O)N[C@@H](Cc2ccccc2)[C@H](O)CN(CC(C)C)S(=O)(=O)c2ccc(OC)cc2)c1 (stereo partly drawn),IC50,[3],11.8 nM
same,inhibition,[4],100%
same,half-life,[5],> 9 h
same,IC50,[6],9.8 nM
CC(C)CN(C[C@@H](O)[C@H](Cc1ccccc1)NC(=O)O[C@H]1CO[C@H]2OCC[C@H]21)S(=O)(=O)c1ccc(CNC(=O)[C@@H]2CCCN2C(=O)[C@@H](N)C(C)C)cc1,Drug metabolism,[7],2%
same,Drug metabolism,[8],2%
COc1ccc(S(=O)(=O)N(CC(C)C)C[C@@H](O)[C@H](Cc2ccccc2)NC(=O)O[C@H]2CCOC2)cc1,inhibition,[4],100%
same,half-life,[9],0.5 h
same,IC50,[6],4.2 nM
Cc1cccc(C)c1OCC(=O)N[C@@H](Cc1ccccc1)[C@H](O)C(=O)N1CSC(C)(C)[C@H]1C(=O)NC(C)(C)C,half-life,[10],4 min
CC(C)(C)NC(=O)[C@@H]1C[C@@H]2CCCC[C@@H]2CN1C[C@@H](OC(=O)CCCC[C@@H]1SC[C@@H]2NC(=O)N[C@@H]21)[C@H](Cc1ccccc1)NC(=O)[C@H](CC(N)=O)NC(=O)c1ccc2ccccc2n1,Drug uptake,[11],72%

# From ChEMBL document CHEMBL5260814, “Design strategies in the prodrugs of HIV-1 protease inhibitors to improve the pharmaceutical properties” (Eur J Med Chem, 2017)
